Reference: patent US20130012709A1, “NOVEL INHIBITORS OF STEAROYL-CoA-DESATURASE-1 AND THEIR USES” (CENTRE NATIONAL DE LA RECHERCHE SCIENTIFIQUE, priority 2009, published 2013)

Assays:
C4-2 tumors = assay: Survival analysis of mice with pre-established C4-2 tumors; type: in vivo; settings: for animals surviving at 14 days of treatment: control group 37.5%
Experimental: (§1) Male athymic nude Mice (Foxn1 nu/nu) (Harlan, Grannat, France) were used at the age of 7 weeks (weight 25-30 g). All procedures were performed in compliance with the European Convention for the Protection of Vertebrate Animals Used for Experimentation (animal house agreement # B-34-172-27, authorization for animal experimentation #34.324). Experiments were done at least twice for each tested condition. Animals were sacrificed before they became compromised. Xenografts were established by subcutaneously injecting 2×10^6 LNCaP cells, 2×10^6 C4-2 cells or 5×10^5 MEFs SV40 in 100 μl of a Matrigel solution. For curative experiments, tumors were allowed to growth until they were measurable with a caliper. In each group, the mice were randomized and given SCD-1 inhibitor at 80 mg/kg in 100 μl of a labrafil-DMA-tween^80 solution (89:10:1) (treated group) or vehicle alone (control group), by daily intra-peritoneal (i.p.) injection 5 days of week. For preventive experiments, the mice were treated daily for 7 days before the day of xenograft. Tumor volume measurements were taken twice to three times a week and calculated according to the formula: length×width×height×0.5236. Data are expressed as the mean tumor volume or as fold of the start point tumor volume. For survival analysis, animals bearing pre-established C4-2 tumors were treated with BZ36 at 80 mg/kg or 160 mg/kg or with vehicle by daily i.p. injection 5 days of week. All mice were monitored for survival until tumor volume had reached 2000 mm^3 or until death. Analysis of survival was conducted by a log-rank test based on the Kaplan-Meier method. At euthanasia, tumors were excised and fixed in 4% formalin for immunohistological analyses.

ras SV40 MEFs tumors = assay: ras SV40 MEFs xenograft, curative and preventive; type: in vivo, mice
Experimental: as §1
Immunohistochemical analysis of SCD-1 expression was performed using high-density Tissue Microarray (TMA) slide (Accumax array) with 39 prostate adenocarcinoma spots from different patients (Gleason scores from 5 to 9) with corresponding normal tissues. […] Sections were mounted in mowiol and analysed rapidly.

[1] = system: MEFs transformed by HaRasV12 and SV40 Large T; assay: Proliferation of MEFs; type: cell-based, mouse
Experimental: (§2) Primary MEFs were obtained from embryos at embryonic day 13.5 by standard methods.
(§3) Monolayer cell cultures were grown in Dulbecco's Modified Eagle's Medium (DMEM) supplemented with 25 mM glucose and 10% FCS.
(§4) At 24 h, 48 h, 72 h and 96 h following addition of increasing concentrations of the tested compound in DMSO or DMSO alone, cells were trypsinized, pelleted by centrifugation at 1200 rpm for 5 min, resuspended in 500 μl of culture medium and counted in an hemocytometer.

[2] = system: p53−/− MEFs transformed by HaRasV12; assay: Proliferation of MEFs; type: cell-based, mouse; settings: p53−/− MEFs fully transformed by HaRasV12
Experimental: as §2, §3, §4

normal MEFs (WT) = assay: Proliferation of MEFs; type: cell-based, mouse; settings: slowly growing normal MEFs (WT)
Experimental: as §2, §3, §4

[3] = Toxicity in nude mice after daily i.p. injection; type: in vivo
Experimental: as §1, with “For survival analysis, animals bearing pre-established C4-2 tumors were treated with BZ36 at 80 mg/kg or 160 mg/kg or with vehicle by daily i.p. injection 5 days of week.” left out, “Analysis of survival was conducted by a log-rank test based on the Kaplan-Meier method. At euthanasia, tumors were excised and fixed in 4% formalin for immunohistological analyses.” left out

SCD-1 = molecular target: T1, SCD-1 (Homo sapiens, UniProt O00767); assay: Determination of SCD activity, [14C] palmitic to palmitoleic acid conversion in cells; type: cell-based; settings: all three cell lines (LNCaP, C4-2, PNT2), 25 μM
T1 construct: endogenous in cells; host or cells: LNCaP, C4-2, PNT2 cells
T1 sequence (O00767 1-359): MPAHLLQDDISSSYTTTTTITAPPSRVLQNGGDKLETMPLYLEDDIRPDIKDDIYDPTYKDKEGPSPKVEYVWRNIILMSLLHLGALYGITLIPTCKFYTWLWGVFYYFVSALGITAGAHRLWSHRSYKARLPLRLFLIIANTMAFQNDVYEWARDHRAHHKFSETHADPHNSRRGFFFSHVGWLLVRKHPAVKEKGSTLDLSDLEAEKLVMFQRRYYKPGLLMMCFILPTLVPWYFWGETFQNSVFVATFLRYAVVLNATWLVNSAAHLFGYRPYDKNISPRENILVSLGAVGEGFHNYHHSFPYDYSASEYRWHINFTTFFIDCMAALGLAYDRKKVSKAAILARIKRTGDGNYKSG
Experimental: Subconfluent LNCaP, C4-2, PNT2 of Ras SV40 MEFs cells grown in 6-wells plate were incubated with the tested inhibitor at 25 μM for 2 h in serum and fatty acid-free DMEM media supplemented 0.2% BSA. In this environment, the cells are solely dependent on endogenous fatty acid synthesis for production of storage, structural and signaling lipids. Trace amount of [^14C] palmitic acid were then added to the culture (0.5 μCi/well), and cells were incubated for 6 more hours. At the end of the incubation, total cell lipids were extracted and saponified, then released fatty acids were esterified with boron trifluoride in methanol for 90 min at 100° C. […] Air-dried plates were scanned on a Phosphorlmager and fatty acid spots on TLC were analysed with Phosphorlmager software. SCD activity was expressed as the ratio of palmitoleic on palmitic methyl ester acids and normalized to cellular DNA content.
The efficacy of the tested compound to inhibit SCD-1 activity has been evaluated by measuring the conversion of exogenous [^14C] saturated palmitic acid (16:0) to monounsaturated palmitoleic acid (16:1n-7). Moreover, the effects of inhibition of SCD-1 activity on lipid synthesis and proliferation in prostate cancer cell lines were analysed.

## COc1ccc(Br)c(C(=O)N2CCN(c3ccc(C(=O)NCCCc4ccccc4)cn3)CC2)c1 [BZ36]
C4-2 tumors; 80 mg/kg or 160 mg/kg, p=0.038
  animal survival in comparison to vehicle control: significant and dose-dependant prolongation
C4-2 tumors; 80 mg/kg
  animals surviving at 14 days of treatment: 75%
C4-2 tumors; 80 mg/kg, control group 14 days
  median survival: 21 days
C4-2 tumors; 160 mg/kg, control group 12.5%
  animals surviving at 28 days of treatment: 75%
C4-2 tumors; 160 mg/kg
  animals surviving at 14 days of treatment: 100%
Ras SV40 MEFs tumors; curative, from day 2, maintained along 12 days, vs vehicle
  ras SV40 MEFs tumors growth: significantly prevented
Ras SV40 MEFs tumors; pre-treatment one week prior to graft, almost all vehicle treated mice developed tumors
  mice with tumors five days after cells were grafted: 50%
Ras SV40 MEFs tumors; ras SV40 MEFs xenografts, vs vehicle-treated mice
  decrease of proliferative tumor cells (PCNA immunostaining): 61%
[1]
  proliferation index: strongly decreased
[2]
  proliferation: efficiently blocked
Normal MEFs (WT)
  proliferation index: only moderately reduced
[3]
  histological examination of liver and skin: absence of toxicity
  weight loss or other toxicity: no significant weight loss or other toxicity
SCD-1
  labelled monounsaturated palmitoleic acid vs control cells: marked reduction
